In PubChem BioAssay (NCI):
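At the GI50, growth is halved. At the TGI there is no net growth.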

Experiments:
Test in all cases: NCI tumour cell line growth inhibition, 384-well format
[1] = system: OVCAR-4 ovarian
[2] = system: SR leukemia
[3] = system: K-562 leukemia
[4] = system: SF-268 CNS
[5] = system: CAKI-1 renal
[6] = system: NCI-H23 lung
[7] = system: PC-3 prostate
[8] = system: SK-OV-3 ovarian
[9] = system: NCI-H522 lung
[10] = system: SNB-19 CNS
[11] = system: HS 578T breast
[12] = system: HL-60(TB) leukemia
[13] = system: OVCAR-3 ovarian
[14] = system: 786-0 renal
[15] = system: OVCAR-5 ovarian
[16] = system: NCI-H226 lung
[17] = system: HCT-15 colon
[18] = system: COLO 205 colon
[19] = system: UO-31 renal
[20] = system: CCRF-CEM leukemia
[21] = system: NCI-H460 NSCLC
[22] = system: SN12C renal
[23] = system: A549 NSCLC
[24] = system: MOLT-4 leukemia
[25] = system: A498 renal
[26] = system: KM12 colon
[27] = system: MDA-MB-231 breast
[28] = system: SF-295 CNS
[29] = system: UACC-257 melanoma
[30] = system: MCF7 breast
[31] = system: HCC-2998 colon
[32] = system: DU-145 prostate
[33] = system: RPMI-8226 leukemia
[34] = system: MDA-MB-435 melanoma
[35] = system: LOX IMVI melanoma
[36] = system: RXF 393 renal
[37] = system: MDA-MB-468 breast
[38] = system: MALME-3M melanoma
[39] = system: NCI-H322M lung
[40] = system: EKVX NSCLC
[41] = system: HOP-62 NSCLC
[42] = system: SF-539 CNS
[43] = system: T-47D breast
[44] = system: SW-620 colon
[45] = system: OVCAR-8 ovarian
[46] = system: BT-549 breast
[47] = system: HT29 colon
[48] = system: IGROV1 ovarian
[49] = system: SNB-75 CNS
[50] = system: NCI/ADR-RES ovarian
[51] = system: SK-MEL-5 melanoma
[52] = system: ACHN renal
[53] = system: UACC-62 melanoma
[54] = system: SK-MEL-28 melanoma
[55] = system: M14 melanoma
[56] = system: U251 glioblastoma
[57] = system: HOP-92 NSCLC
[58] = system: HCT-116 colon
[59] = system: TK-10 renal

## C=CC(=O)N1C[C@H](COc2nc(Nc3cnn(C)c3)nc3[nH]cc(Cl)c23)[C@@H](OC)C1
[1]
  GI50: 1750 nM
  TGI: 23600 nM
[2]
  GI50: 190 nM
  TGI: 351 nM
[3]
  GI50: 2140 nM
  TGI: 12300 nM
[4]
  GI50: 1930 nM
  TGI: 12300 nM
[5]
  GI50: 1170 nM
  TGI: 11900 nM
[6]
  GI50: 1590 nM
  TGI: 9360 nM
[7]
  GI50: 4530 nM
  TGI: 20500 nM
[8]
  GI50: 556 nM
  TGI: 5050 nM
[9]
  GI50: 281 nM
  TGI: 858 nM
[10]
  GI50: 5200 nM
  TGI: 23100 nM
[11]
  GI50: 1370 nM
  TGI: 4190 nM
[12]
  GI50: 408 nM
  TGI: 1550 nM
[13]
  GI50: 2720 nM
  TGI: 23600 nM
[14]
  GI50: 4840 nM
  TGI: 41800 nM
[15]
  GI50: 5340 nM
  TGI: > 100000 nM
[16]
  GI50: 394 nM
  TGI: 9420 nM
[17]
  GI50: 2930 nM
  TGI: 12300 nM
[18]
  GI50: 540 nM
  TGI: 11100 nM
[19]
  GI50: 7620 nM
  TGI: > 100000 nM
[20]
  GI50: 242 nM
  TGI: 544 nM
[21]
  GI50: 1810 nM
  TGI: 11600 nM
[22]
  GI50: 633 nM
  TGI: 12800 nM
[23]
  GI50: 2250 nM
  TGI: 13100 nM
[24]
  GI50: 308 nM
  TGI: 833 nM
[25]
  GI50: 584 nM
  TGI: 21400 nM
[26]
  GI50: 287 nM
  TGI: 14300 nM
[27]
  GI50: 2780 nM
  TGI: > 100000 nM
[28]
  GI50: 13300 nM
  TGI: 31500 nM
[29]
  GI50: 5210 nM
  TGI: 17100 nM
[30]
  GI50: 2020 nM
  TGI: 15600 nM
[31]
  GI50: 3860 nM
  TGI: 15000 nM
[32]
  GI50: 2260 nM
  TGI: > 100000 nM
[33]
  GI50: 1000 nM
  TGI: 3470 nM
[34]
  GI50: 4270 nM
  TGI: 20900 nM
[35]
  GI50: 1520 nM
  TGI: 11600 nM
[36]
  GI50: 5760 nM
  TGI: 22300 nM
[37]
  GI50: 267 nM
  TGI: 628 nM
[38]
  GI50: 8860 nM
  TGI: 21200 nM
[39]
  GI50: 1390 nM
  TGI: 13800 nM
[40]
  GI50: 1310 nM
  TGI: 7080 nM
[41]
  GI50: 4050 nM
  TGI: 26500 nM
[42]
  GI50: 1210 nM
  TGI: 3200 nM
[43]
  GI50: 4630 nM
  TGI: 18000 nM
[44]
  GI50: 673 nM
  TGI: 2110 nM
[45]
  GI50: 4150 nM
  TGI: 18700 nM
[46]
  GI50: 470 nM
  TGI: 10300 nM
[47]
  GI50: 4010 nM
  TGI: > 100000 nM
[48]
  GI50: 852 nM
  TGI: 3310 nM
[49]
  GI50: 467 nM
  TGI: 1880 nM
[50]
  GI50: 29300 nM
  TGI: > 100000 nM
[51]
  GI50: 3010 nM
  TGI: 12200 nM
[52]
  GI50: 1940 nM
  TGI: 15400 nM
[53]
  GI50: 912 nM
  TGI: 13500 nM
[54]
  GI50: 3820 nM
  TGI: 16800 nM
[55]
  GI50: 2170 nM
  TGI: 18200 nM

## Cc1ccc(Cl)cc1-c1nc(N)nc(Nc2ccc(Br)cc2)n1
[1]
  GI50: 57.3 nM
  TGI: 91800 nM
[56]
  GI50: 42.8 nM
  TGI: 2870 nM
[2]
  GI50: 17.3 nM
  TGI: 37.6 nM
[4]
  GI50: 50.4 nM
  TGI: > 100000 nM
[5]
  GI50: 68.8 nM
  TGI: > 100000 nM
[6]
  GI50: 49.9 nM
  TGI: > 100000 nM
[7]
  GI50: 46 nM
  TGI: 51900 nM
[8]
  GI50: 38.6 nM
  TGI: 57000 nM
[9]
  GI50: 23.9 nM
  TGI: 47.9 nM
[10]
  GI50: 54.1 nM
  TGI: 14400 nM
[11]
  GI50: 21.4 nM
  TGI: 51.1 nM
[12]
  GI50: 20.5 nM
  TGI: 35.2 nM
[13]
  GI50: 22.3 nM
  TGI: 45.8 nM
[57]
  GI50: 10400 nM
  TGI: > 100000 nM
[16]
  GI50: 35.6 nM
  TGI: 97.8 nM
[17]
  GI50: 37.4 nM
  TGI: 271 nM
[18]
  GI50: 34 nM
  TGI: 93.6 nM
[21]
  GI50: 25.2 nM
  TGI: 63.3 nM
[22]
  GI50: 25.4 nM
  TGI: 37500 nM
[23]
  GI50: 88 nM
  TGI: > 100000 nM
[24]
  GI50: 21 nM
  TGI: 37.2 nM
[25]
  GI50: 38 nM
  TGI: 14800 nM
[26]
  GI50: 43.4 nM
  TGI: 94100 nM
[27]
  GI50: 84.4 nM
  TGI: > 100000 nM
[28]
  GI50: 35.5 nM
  TGI: 12600 nM
[29]
  GI50: 40.1 nM
  TGI: > 100000 nM
[30]
  GI50: 50.1 nM
  TGI: > 100000 nM
[31]
  GI50: 25.9 nM
  TGI: 170 nM
[32]
  GI50: 39.5 nM
  TGI: 269 nM
[33]
  GI50: 20 nM
  TGI: 38.3 nM
[34]
  GI50: 20 nM
  TGI: 39.4 nM
[35]
  GI50: 55.2 nM
  TGI: 569 nM
[36]
  GI50: 32.8 nM
  TGI: 36600 nM
[37]
  GI50: 174 nM
  TGI: 378 nM
[58]
  GI50: 45.2 nM
  TGI: > 100000 nM
[39]
  GI50: 409 nM
  TGI: > 100000 nM
[40]
  GI50: 49.4 nM
  TGI: > 100000 nM
[41]
  GI50: 36 nM
  TGI: 17600 nM
[42]
  GI50: 36.3 nM
  TGI: 1060 nM
[43]
  GI50: 23500 nM
  TGI: > 100000 nM
[45]
  GI50: 51.8 nM
  TGI: > 100000 nM
[46]
  GI50: 49.1 nM
  TGI: 374 nM
[47]
  GI50: 34.4 nM
  TGI: 15100 nM
[48]
  GI50: 73.3 nM
  TGI: > 100000 nM
[49]
  GI50: 45.2 nM
  TGI: 24300 nM
[50]
  GI50: 20.9 nM
  TGI: 51.3 nM
[51]
  GI50: 24.2 nM
  TGI: 58.6 nM
[52]
  GI50: 77 nM
  TGI: > 100000 nM
[53]
  GI50: 45.3 nM
  TGI: > 100000 nM
[55]
  GI50: 28.9 nM
  TGI: 71.2 nM
[59]
  GI50: 70 nM
  TGI: > 100000 nM
